Consider three molecules from patent US20240279231A1, “MAP4K4 INHIBITORS AND METHODS OF SYNTHESIS AND USE THEREOF” (The Board of Regents of the University of Oklahoma, priority 2021, published 2024).

The conditions of series [1]: mouse infarct model; cited from earlier work.
Series [2] in a line: Solubility in aqueous medium. The series is classed as physicochemical. The source says:
In order to shift alkylation to desired phenolic site, we changed reaction conditions to acidic by using boron trifluoride diethyl etherate as a Lewis acid (entries 9-11 of Table 1). […] Hypothesizing that the relatively low separated yields of this reaction are due to the insolubility of phenolic derivative in dichloromethane, we decided to perform this reaction in neat conditions with BF3OEt2. This modification produced satisfactory yields of DMX-5804 (entry 10). Further, we added excess of methylglycol as a solvent as well as a reactant in presence of BF3OEt2 to obtain quantitative yields of DMX-5804 in good time (entry 11). In these acidic conditions, the other regioisomer (pyrimidine alkylated compound 7) was completely absent. Previously, the use of BF3OEt2 for phenolic alkylation has been reported. In addition to the compound DMX-5804, we employed this route for synthesis of ribose- and glucose-conjugated analogs. […]

The conditions of series [3]: compared with F1386-0303; cited from earlier work.
Series [4] concerns the target T1, recombinant MAP4K4 enzyme (Homo sapiens, UniProt O95819).
T1 construct: purchased BioAssay Systems Services (Hayward, CA)
Put plainly: MAP4K4 inhibition assay (cell free, MBP substrate, ADP detection). The series is classed as biochemical. To be noted: for IC50: recombinant MAP4K4, MBP substrate, 48 μM ATP, compounds titrated from 900 nM, read-out: concentration for 50% inhibition of MAP4K4 (IC50). The protocol: MAP4K4 inhibition assay: MAP4K4 assay for IC50 determination was performed using a kit by BioAssay Systems Services (Hayward, CA). Briefly, MAP4K4 in assay buffer (40 ng in 10 μL) was incubated with varying concentrations of test compounds (5 μL in dimethylsulfoxide) for 15 min at 37° C. The compounds were titrated from 900 nM (final reaction concentration) in 3× steps. Compound dilutions were made in assay buffer with 0.036% dimethylsulfoxide. Reactions were initiated by adding 5 μL reaction mix (2.6 μg/μL MBP, 193 μM ATP; final reaction concentration of 13 μg MBP, 48 μM ATP) and run at 37° C. for 20 min. These kinase reactions were stopped with an ADP detection reagent and fluorescence was measured at 530Ex/590Em. IC50 was computed using GraphPad Prism Nonlinear Sigmoidal Dose-Response fitting.
MAP4K4 inhibition assay: The MAP4K4 inhibitory activity of DMX-5804, Ribose-analog 9, and regio-isomer 7 were examined in a cell free assay using recombinant MAP4K4 enzyme and myelin basic protein (MBP) as its substrate.

Another series deals with cardiomyocyte. To be noted: oxidative stress-induced, in vitro and in vivo; cited from earlier work.
Series [5] can be described thus: Solubility in polar solvents. In kind it is physicochemical. To be noted: compared with DMX-5804. The protocol: (§1) First, we attempted base-catalyzed O-alkylation in a variety of conditions (Table 1). […] We also screened various solvents combined with different bases to get DMX-5804. […] However, DMX-5804 was obtained only in small amounts (5-7%), whereas compound 7 was isolated as the major product (88%). To check the stability of compound 7, we refluxed it in dioxane-HCl for 6 h. […] Also, its HPLC retention time was identical to that of DMX-5804 (data not shown).

A short description of series [6]: Stability on reflux in dioxane-HCl. In kind it is physicochemical. The following applies: refluxed in dioxane-HCl for 6 h. Here is the method: as §1

T1 sequence (O95819 whole entry): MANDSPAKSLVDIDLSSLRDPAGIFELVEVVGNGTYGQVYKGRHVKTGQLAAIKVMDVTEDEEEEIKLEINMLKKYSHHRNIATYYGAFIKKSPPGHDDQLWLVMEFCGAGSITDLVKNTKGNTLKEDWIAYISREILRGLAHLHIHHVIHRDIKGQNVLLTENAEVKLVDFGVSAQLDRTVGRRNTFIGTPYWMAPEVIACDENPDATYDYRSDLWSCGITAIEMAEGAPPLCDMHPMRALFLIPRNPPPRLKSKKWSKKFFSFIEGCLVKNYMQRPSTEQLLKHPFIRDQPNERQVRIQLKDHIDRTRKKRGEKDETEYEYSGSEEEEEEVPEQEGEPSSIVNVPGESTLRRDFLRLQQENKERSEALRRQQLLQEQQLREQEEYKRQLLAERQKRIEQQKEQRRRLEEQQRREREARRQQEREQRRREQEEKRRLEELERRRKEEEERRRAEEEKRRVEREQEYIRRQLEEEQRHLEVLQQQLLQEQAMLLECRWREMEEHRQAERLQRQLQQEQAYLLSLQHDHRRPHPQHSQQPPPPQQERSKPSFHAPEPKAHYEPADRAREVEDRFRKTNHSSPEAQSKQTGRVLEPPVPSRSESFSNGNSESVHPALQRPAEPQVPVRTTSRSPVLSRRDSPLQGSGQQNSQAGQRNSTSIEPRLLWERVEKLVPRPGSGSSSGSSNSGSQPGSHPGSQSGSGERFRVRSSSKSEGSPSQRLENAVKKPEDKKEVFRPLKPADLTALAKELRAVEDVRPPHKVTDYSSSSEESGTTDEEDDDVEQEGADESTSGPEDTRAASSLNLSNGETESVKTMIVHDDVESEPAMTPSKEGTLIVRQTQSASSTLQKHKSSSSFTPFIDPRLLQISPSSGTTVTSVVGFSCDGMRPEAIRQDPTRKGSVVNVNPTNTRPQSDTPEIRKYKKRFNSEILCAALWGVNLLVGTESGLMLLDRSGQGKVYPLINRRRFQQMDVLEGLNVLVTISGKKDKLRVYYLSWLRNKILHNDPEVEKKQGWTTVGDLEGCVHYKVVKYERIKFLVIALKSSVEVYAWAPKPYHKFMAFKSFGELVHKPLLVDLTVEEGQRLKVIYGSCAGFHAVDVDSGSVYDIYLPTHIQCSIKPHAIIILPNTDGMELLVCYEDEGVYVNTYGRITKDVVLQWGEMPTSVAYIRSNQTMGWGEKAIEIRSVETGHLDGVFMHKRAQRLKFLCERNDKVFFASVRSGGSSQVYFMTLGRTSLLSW

Take `COCCOc1ccc(-c2cn(-c3ccccc3)c3nc[nH]c(=O)c23)cc1` [DMX-5804, 5-(4-(2-methoxyethoxy)phenyl)-7-phenyl-3,7-dihydro-4H-pyrrolo[2,3-d]pyrimidin-4-one]: the infarct size entry in series [1] is given as “significant reduction of infarct size”. Also, the “solubility in aqueous medium” value in series [2] is reported as “virtually insoluble”. Further, the bioavailability in vivo entry in series [3] is “better bioavailability in vivo than F1386-0303”. The IC50 in series [4] came out at 206 nM. Further, the cardiomyocyte death result in the series on cardiomyocyte is “reduces cardiomyocyte death both in vitro and in vivo”.
Turning to `O=c1[nH]cnc2c1c(-c1ccc(OC3OC(CO)C(O)C3O)cc1)cn2-c1ccccc1` (stereo not shown) [Compound 9, 5-(4-((3,4-dihydroxy-5-(hydroxymethyl)tetrahydrofuran-2-yl)oxy)phenyl)-7-phenyl-3,7-dihydro-4H-pyrrolo[2,3-d]pyrimidin-4-one], in series [4], the IC50 was 256 nM.
`COCCOc1ncnc2c1c(-c1ccc(O)cc1)cn2-c1ccccc1` (single isomer, unassigned) [Compound 7, 4-(4-(2-methoxyethoxy)-7-phenyl-7H-pyrrolo[2,3-d]pyrimidin-5-yl)phenol] had a melting point of 221 to 224 °C. Also, the “solubility in polar solvents” value in series [5] is recorded as “significantly better than DMX-5804”. Also, the MAP4K4 inhibitory activity result in series [4] (concentration range tested (titrated from 900 nM in 3× steps)) is “no inhibitory activity in the concentration range tested”. Further, the “stability in acidic conditions” value in series [6] is reported as “stable in acidic conditions”.

Broadly, the melting point is the temperature of the solid-liquid transition.
